Data: the NIST ThermoML archive (doi:10.1016/j.jct.2011.02.008)

Assay: xn = mol fraction of the nth substance listed
Conditions: Liquid, Vibrating tube method

COC(=O)c1ccccc1 [methyl benzoate] + CCCCCCO
mass density [kg/m3]
Conditions | x1 = 0.1004 | x1 = 0.2007 | x1 = 0.3007 | x1 = 0.4013 | x1 = 0.5005 | x1 = 0.6009 | x1 = 0.7 | x1 = 0.8008 | x1 = 0.9009
318.15 K, 30000 kPa | 846.9 | 872.9 | 899.1 | 925.4 | 951.5 | 977.9 | 1003.9 | 1030.5 | 1056.8
318.15 K, 35000 kPa | 849.9 | 875.9 | 902.1 | 928.4 | 954.5 | 980.9 | 1006.9 | 1033.5 | 1059.8
318.15 K, 40000 kPa | 852.8 | 878.8 | 905.1 | 931.4 | 957.4 | 983.8 | 1009.8 | 1036.4 | 1062.7
318.15 K, 45000 kPa | 855.7 | 881.7 | 907.9 | 934.3 | 960.3 | 986.7 | 1012.7 | 1039.3 | 1065.6
318.15 K, 50000 kPa | 858.4 | 884.5 | 910.7 | 937.1 | 963.1 | 989.5 | 1015.5 | 1042.1 | 1068.4
318.15 K, 55000 kPa | 861.1 | 887.2 | 913.4 | 939.8 | 965.8 | 992.2 | 1018.2 | 1044.6 | 1071.1
318.15 K, 60000 kPa | 863.6 | 889.6 | 915.9 | 942.3 | 968.3 | 994.9 | 1020.7 | 1047.2 | 1073.6
328.15 K, 100 kPa | 818.7 | 844.4 | 870.4 | 896.7 | 922.5 | 948.8 | 974.9 | 1001.4 | 1027.8
328.15 K, 1000 kPa | 819.4 | 845.1 | 871.1 | 897.4 | 923.2 | 949.5 | 975.6 | 1002.1 | 1028.5
328.15 K, 5000 kPa | 822.6 | 848.3 | 874.3 | 900.5 | 926 | 952.6 | 978.6 | 1005.1 | 1031.5
328.15 K, 10000 kPa | 826.4 | 852.1 | 878.1 | 904.3 | 930.1 | 956.3 | 982.2 | 1008.7 | 1035.1
328.15 K, 15000 kPa | 830 | 855.7 | 881.7 | 907.8 | 933.7 | 959.9 | 985.8 | 1012.3 | 1038.6
328.15 K, 20000 kPa | 833.5 | 859.2 | 885.2 | 911.3 | 937.2 | 963.3 | 989.2 | 1015.7 | 1042
328.15 K, 25000 kPa | 836.9 | 862.6 | 888.6 | 914.6 | 940.5 | 966.6 | 992.5 | 1019 | 1045.3
328.15 K, 30000 kPa | 840.1 | 865.8 | 891.8 | 917.9 | 943.7 | 969.9 | 995.7 | 1022.2 | 1048.5
328.15 K, 35000 kPa | 843.3 | 869 | 895 | 921.1 | 946.9 | 973 | 998.9 | 1025.3 | 1051.6
328.15 K, 40000 kPa | 846.3 | 872 | 898 | 924.1 | 950 | 976 | 1001.9 | 1028.3 | 1054.6
328.15 K, 45000 kPa | 849.2 | 874.9 | 901 | 927.1 | 952.9 | 979 | 1004.9 | 1031.3 | 1057.6
328.15 K, 50000 kPa | 852.1 | 877.8 | 903.9 | 930 | 955.8 | 981.9 | 1007.8 | 1034.2 | 1060.5
328.15 K, 55000 kPa | 854.9 | 880.6 | 906.7 | 932.8 | 958.7 | 984.8 | 1010.7 | 1037.1 | 1063.3
328.15 K, 60000 kPa | 857.4 | 883.2 | 908.8 | 935.6 | 960.6 | 987.4 | 1013.3 | 1039.6 | 1066.1
338.15 K, 100 kPa | 810.7 | 836.2 | 862 | 888 | 913.7 | 939.7 | 965.6 | 992 | 1018.4
338.15 K, 1000 kPa | 811.4 | 837 | 862.7 | 888.7 | 914.4 | 940.4 | 966.3 | 992.7 | 1019.1
338.15 K, 5000 kPa | 814.9 | 840.4 | 866.1 | 892 | 917.7 | 943.7 | 969.5 | 996 | 1022.3
338.15 K, 10000 kPa | 818.9 | 844.3 | 870.1 | 896 | 921.6 | 947.6 | 973.4 | 999.7 | 1026
338.15 K, 15000 kPa | 822.7 | 848.2 | 873.8 | 899.7 | 925.4 | 951.4 | 977.2 | 1003.4 | 1029.7
338.15 K, 20000 kPa | 826.4 | 851.8 | 877.5 | 903.4 | 929.1 | 955 | 980.7 | 1007 | 1033.3
338.15 K, 25000 kPa | 829.9 | 855.3 | 881 | 906.9 | 932.5 | 958.5 | 984.2 | 1010.5 | 1036.7
338.15 K, 30000 kPa | 833.3 | 858.7 | 884.4 | 910.3 | 935.9 | 961.8 | 987.5 | 1013.8 | 1040
338.15 K, 35000 kPa | 836.5 | 862 | 887.7 | 913.6 | 939.2 | 965.1 | 990.8 | 1017.1 | 1043.3
338.15 K, 40000 kPa | 839.7 | 865.1 | 890.9 | 916.8 | 942.4 | 968.3 | 994 | 1020.2 | 1046.4
338.15 K, 45000 kPa | 842.7 | 868.2 | 894 | 919.9 | 945.5 | 971.4 | 997.1 | 1023.3 | 1049.5
338.15 K, 50000 kPa | 845.7 | 871.2 | 897 | 922.9 | 948.5 | 974.4 | 1000.1 | 1026.4 | 1052.5
338.15 K, 55000 kPa | 848.6 | 874.1 | 899.9 | 925.8 | 951.4 | 977.4 | 1003.1 | 1029.3 | 1055.5
338.15 K, 60000 kPa | 851.4 | 876.8 | 902.8 | 928.7 | 954.3 | 980.1 | 1005.8 | 1032 | 1058.2
348.15 K, 100 kPa | 802.6 | 827.8 | 853.4 | 879.1 | 904.6 | 930.4 | 956.1 | 982.5 | 1008.8
348.15 K, 1000 kPa | 803.3 | 828.6 | 854.2 | 879.9 | 905.4 | 931.3 | 956.9 | 983.2 | 1009.5
348.15 K, 5000 kPa | 807 | 832.2 | 857.7 | 883.4 | 908.8 | 934.7 | 960.3 | 986.6 | 1012.9
348.15 K, 10000 kPa | 811.2 | 836.4 | 861.9 | 887.6 | 913 | 938.8 | 964.4 | 990.7 | 1016.9
348.15 K, 15000 kPa | 815.2 | 840.4 | 865.9 | 891.4 | 917 | 942.8 | 968.4 | 994.6 | 1020.7
348.15 K, 20000 kPa | 819 | 844.2 | 869.7 | 895.4 | 920.8 | 946.6 | 972.1 | 998.3 | 1024.4
348.15 K, 25000 kPa | 822.7 | 847.9 | 873.4 | 899.1 | 924.5 | 950.2 | 975.8 | 1001.9 | 1028
348.15 K, 30000 kPa | 826.2 | 851.4 | 877 | 902.6 | 928 | 953.8 | 979.3 | 1005.4 | 1031.5
348.15 K, 35000 kPa | 829.6 | 854.8 | 880.4 | 906 | 931.4 | 957.2 | 982.7 | 1008.9 | 1034.9
348.15 K, 40000 kPa | 832.9 | 858.1 | 883.7 | 909.3 | 934.7 | 960.5 | 986 | 1012.2 | 1038.2
348.15 K, 45000 kPa | 836.1 | 861.3 | 886.9 | 912.5 | 938 | 963.7 | 989.3 | 1015.4 | 1041.4
348.15 K, 50000 kPa | 839.1 | 864.4 | 890 | 915.7 | 941.1 | 966.9 | 992.4 | 1018.5 | 1044.5
348.15 K, 55000 kPa | 842.1 | 867.4 | 893 | 918.7 | 944.2 | 969.9 | 995.5 | 1021.6 | 1047.6
348.15 K, 60000 kPa | 844.9 | 870.2 | 895.8 | 921.5 | 947 | 972.8 | 998.2 | 1024.6 | 1050.4
358.15 K, 100 kPa | 794.1 | 819.1 | 844.4 | 869.9 | 895.3 | 921 | 946.6 | 972.8 | 999
358.15 K, 1000 kPa | 795 | 820 | 845.3 | 870.8 | 896.1 | 921.7 | 947.4 | 973.6 | 999.8
358.15 K, 5000 kPa | 798.7 | 823.7 | 849 | 874.5 | 899.8 | 925.5 | 951 | 977.2 | 1003.3
358.15 K, 10000 kPa | 803.1 | 828.2 | 853.5 | 878.9 | 904.2 | 929.9 | 955.3 | 981.4 | 1007.5
358.15 K, 15000 kPa | 807.4 | 832.4 | 857.7 | 883.1 | 908.4 | 934 | 959.5 | 985.5 | 1011.6
358.15 K, 20000 kPa | 811.4 | 836.4 | 861.7 | 887.1 | 912.3 | 938 | 963.4 | 989.5 | 1015.5
358.15 K, 25000 kPa | 815.3 | 840.3 | 865.6 | 891 | 916.2 | 941.8 | 967.3 | 993.3 | 1019.3
358.15 K, 30000 kPa | 818.9 | 844 | 869.3 | 894.7 | 919.9 | 945.5 | 970.9 | 996.9 | 1022.9
358.15 K, 35000 kPa | 822.4 | 847.6 | 872.8 | 898.3 | 923.5 | 949.1 | 974.5 | 1000.5 | 1026.5
358.15 K, 40000 kPa | 825.9 | 851 | 876.3 | 901.7 | 926.9 | 952.6 | 978 | 1003.9 | 1029.9
358.15 K, 45000 kPa | 829.2 | 854.3 | 879.6 | 905.1 | 930.3 | 956 | 981.3 | 1007.3 | 1033.2
358.15 K, 50000 kPa | 832.4 | 857.5 | 882.9 | 908.3 | 933.6 | 959.3 | 984.6 | 1010.6 | 1036.5
358.15 K, 55000 kPa | 835.5 | 860.7 | 886 | 911.5 | 936.7 | 962.4 | 987.8 | 1013.7 | 1039.7
358.15 K, 60000 kPa | 838.5 | 863.5 | 889.1 | 914.4 | 939.8 | 965.3 | 990.7 | 1016.9 | 1042.6
